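Dose response: 5 concentrations. Exposure: 48 h. Format: 96-well plates. Endpoint: linear interpolation; highest concentration if not reached. At the GI50, growth is halved.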 Activity calls are given as the source filed them. Cut-off read from the data, not from the text of the source: active = GI50 up to about 1.1 µM and inactive = higher.
Assays:
Assay in all cases: NCI tumour cell line growth inhibition, 48 h
EKVX = tested on: EKVX
PC-3 = tested on: PC-3
SF-539 = tested on: SF-539
MDA-MB-231 = tested on: MDA-MB-231
CAKI-1 = tested on: CAKI-1
Hs-578T = tested on: Hs-578T
UACC-62 = tested on: UACC-62
HCC 2998 = tested on: HCC 2998
SF-268 = tested on: SF-268
RXF 393 = tested on: RXF 393
U-251 = tested on: U-251
SK-OV-3 = tested on: SK-OV-3
SW-620 = tested on: SW-620
HCT-116 = tested on: HCT-116
NCI-H522 = tested on: NCI-H522
RPMI-8226 = tested on: RPMI-8226
MOLT-4 = tested on: MOLT-4
A498 = tested on: A498
M14 = tested on: M14

Measured: GI50

COC(=O)C1Cc2c([nH]c3ccccc23)-c2[nH]c3ccccc3c2CC(NC(C)=O)C(=O)NCC(=O)N1 (stereo unspecified)
inactive: EKVX > 100 µM | PC-3 > 100 µM | SF-539 > 100 µM | MDA-MB-231 > 100 µM | CAKI-1 > 100 µM | Hs-578T > 100 µM | UACC-62 > 100 µM | HCC 2998 > 100 µM | SF-268 > 100 µM | RXF 393 > 100 µM | U-251 > 100 µM | SK-OV-3 > 100 µM | SW-620 > 100 µM | HCT-116 > 100 µM | NCI-H522 > 100 µM | RPMI-8226 > 100 µM | MOLT-4 > 100 µM

N#CC1(C#N)C(c2ccccc2)C=CC(c2ccc([N+](=O)[O-])cc2)C1(C#N)C#N (stereo unspecified)
inactive: EKVX 14.8 µM | PC-3 12.2 µM | SF-539 2.81 µM | MDA-MB-231 13.4 µM | CAKI-1 3.66 µM | Hs-578T 17.9 µM | UACC-62 12 µM | HCC 2998 19.4 µM | SF-268 17.5 µM | A498 16.6 µM | U-251 20.4 µM | SK-OV-3 18.5 µM | SW-620 3.66 µM | HCT-116 3.8 µM | NCI-H522 3.21 µM | RPMI-8226 2.91 µM | MOLT-4 2.3 µM | M14 4.59 µM

C[C@]12CCC(=O)C=C1CC[C@@H]1[C@@H]2CC[C@]2(C)C(=O)/C(=C/c3ccncc3)C[C@@H]12
inactive: EKVX 14.6 µM | PC-3 12.4 µM | SF-539 7.4 µM | MDA-MB-231 15.2 µM | CAKI-1 15.9 µM | Hs-578T 29.8 µM | UACC-62 12.7 µM | HCC 2998 16.7 µM | SF-268 18.8 µM | RXF 393 15.6 µM | U-251 12.4 µM | SK-OV-3 20 µM | SW-620 23.8 µM | HCT-116 10.6 µM | NCI-H522 15.3 µM | RPMI-8226 8.99 µM | MOLT-4 16.4 µM | M14 14.6 µM

CN(C)CCOc1ccc([N+](=O)[O-])c2cccnc12
inactive: PC-3 > 100 µM | SF-539 > 100 µM | MDA-MB-231 30.2 µM | CAKI-1 > 100 µM | Hs-578T > 100 µM | UACC-62 > 100 µM | HCC 2998 > 100 µM | SF-268 > 100 µM | A498 > 100 µM | U-251 > 100 µM | SK-OV-3 > 100 µM | SW-620 78.7 µM | HCT-116 35.6 µM | NCI-H522 61.9 µM | MOLT-4 60.8 µM | M14 > 100 µM

CN(C)CCSS(=O)(=O)O
inactive: EKVX > 100 µM | PC-3 > 100 µM | SF-539 > 100 µM | MDA-MB-231 > 100 µM | CAKI-1 > 100 µM | Hs-578T > 100 µM | UACC-62 > 100 µM | SF-268 > 100 µM | A498 > 100 µM | RXF 393 > 100 µM | U-251 30.2 µM | SK-OV-3 29.4 µM | SW-620 > 100 µM | HCT-116 > 100 µM | NCI-H522 83.9 µM | RPMI-8226 > 100 µM | MOLT-4 > 100 µM | M14 > 100 µM

CN(C)CCSc1cc(-c2ccccc2)c2ccccc2n1
inactive: EKVX 15.7 µM | PC-3 12.2 µM | SF-539 9.18 µM | MDA-MB-231 11.3 µM | CAKI-1 16.3 µM | Hs-578T 10.3 µM | UACC-62 2.59 µM | SF-268 11.8 µM | A498 16 µM | RXF 393 3.14 µM | U-251 10.6 µM | SK-OV-3 3.91 µM | SW-620 6.14 µM | HCT-116 7.43 µM | NCI-H522 10.7 µM | RPMI-8226 17.3 µM | MOLT-4 6.38 µM | M14 2.69 µM

CC1=NNC(=O)C1C1CC(c2c[nH]c3ccccc23)=NN=C1Cl (stereo unspecified)
inactive: EKVX 70.8 µM | PC-3 56.5 µM | SF-539 55.6 µM | MDA-MB-231 46.6 µM | CAKI-1 > 100 µM | Hs-578T 61.8 µM | UACC-62 85.7 µM | SF-268 55.6 µM | A498 > 100 µM | RXF 393 45.8 µM | U-251 43.6 µM | SK-OV-3 > 100 µM | SW-620 63.5 µM | HCT-116 44.3 µM | NCI-H522 45.8 µM | RPMI-8226 23.7 µM | MOLT-4 24.2 µM | M14 53.5 µM

Cc1ccc(O)c(C(=O)/C=C/c2ccccc2)c1
inactive: EKVX > 100 µM | PC-3 > 100 µM | SF-539 > 100 µM | MDA-MB-231 > 100 µM | CAKI-1 > 100 µM | Hs-578T 78 µM | UACC-62 > 100 µM | HCC 2998 > 100 µM | SF-268 > 100 µM | RXF 393 > 100 µM | U-251 > 100 µM | SK-OV-3 > 100 µM | SW-620 > 100 µM | HCT-116 > 100 µM | NCI-H522 5.81 µM | RPMI-8226 > 100 µM | MOLT-4 9.93 µM | M14 > 100 µM

— ChEMBL document CHEMBL1201862, “PubChem BioAssay data set” (2004)
